This note sets out measurements from patent US11072590B2, “1,4,7,10-tetrazacyclododecane based agents to target bacteria and its use” (HELMHOLTZ-ZENTRUM FUER INFEKTIONSFORSCHUNG GMBH, priority 2014, dated 2021).

Type in all cases: cell-based
For assay [1], the system named is P. aeruginosa PA01/pirA. Put plainly: Broth microdilution MIC, P. aeruginosa PA01/pirA mutant. The settings on record: mutant with defect in ferric enterobactin receptor (pirA). The procedure:
(§1) All liquids and media were sterilized by autoclaving (121° C., 15 min) before use. All aqueous solutions and media were prepared using distilled, deionized, and filtered water (Millipore Milli-Q Advantage A10 Water Purification System) Mueller-Hinton No. 2 broth (MHII broth; cation adjusted) was purchased from Sigma-Aldrich (St. Louis, Mo.). Iron-deficient (−Fe) MHII broth was prepared by adding 0.8 mL of a 1 mg/mL sterile aq. solution of 2,2′-bipyridine to 49.2 mL of MHII broth. Iron-rich (+Fe) MHII broth was prepared by adding 0.8 mL of a 1 mg/mL sterile aq. solution of FeCl3 to 49.2 mL of MH II broth.
(§2) Antibacterial activity of the compounds was determined by measuring their minimum inhibitory concentrations (MIC90's) using the broth microdilution method according to the Clinical and Laboratory Standards Institute (CLSI, formerly the NCCLS) guidelines. Each well of a 96-well microtiter plate was filled with 40 μL of sterile broth media (−Fe or +Fe). Each test compound was dissolved in DMSO making a 10 mM solution, and then diluted with sterile broth media (−Fe or +Fe) to 75 or 150 μM. Exactly 80 μL of the compound solution was added to the first well of the microtiter plate and 1.5-fold serial dilutions were made down each row of the plate. Exactly 40 μL of bacterial inoculum (Acinetobacter baumannii, Pseudomonas aeruginosa, Staphylococcus aureus Starting Optical density (OD)=0.0005) was then added to each well giving a total volume of 80 μL/well. The plate was incubated at 37° C. for 48 h and then each well was examined for bacterial growth. The MIC90 was recorded as the lowest compound concentration (μM) required to inhibit 90% of bacterial growth as judged by turbidity of the culture media relative to a row of wells filled with a DMSO standard.
A general note: In broth dilution the organism is exposed to a series of concentrations in liquid medium.

Assay [2] has as its system Klebsiella pneumoniae (DSM 11678, ATCC 33495). Put plainly: Broth microdilution MIC, Klebsiella pneumoniae. How it is done:
as §1, §2
(§3) Compounds HHY-10 and HHY-11 were subjected to further assays to determine their minimum inhibitory concentrations (MIC) in both iron-rich and iron-deficient media (Table 1). […] Compounds 10 and 11 were also tested against Klebsiella pneumoniae (DSM 11678, ATCC 33495), which is able to synthesize and utilize enterobactin and its degraded product for iron uptake under iron-limited conditions. […] It appears that P. aeruginosa, A. baumannii, Straph aureus and K. pneumoniae, either induced or inherently, have different abilities to use triscatecholate as a siderophore for iron uptake. The inhibitory activities of vancomycin siderophore-DOTA conjugate HHY-30 have been analyzed under similar conditions.

The subject of assay [3] is P. aeruginosa PA07/wt. Put plainly: Broth microdilution MIC, P. aeruginosa PA07/wt. How it is done:
as §1, §2

In assay [4] the test system is P. aeruginosa PAO01/fptA. Put plainly: Broth microdilution MIC, P. aeruginosa PAO01/fptA mutant. The settings on record: mutation in pyochelin outer membrane receptor precursor. How it is done: as §1, §2
Assay [5] deals with Acinetobacter baumannii. In words: Uptake in bacteria by confocal fluorescent microscopy. The settings on record: 20 μM probe, 1 hour at 37° C., PBS. How it is done: The uptake of coumarin 343, HHY-10 and HHY-11 was investigated in gram-negative bacteria Pseudomonas aeruginosa PA7 (DSM 24068), Acinetobacter baumannii (DSM 30007, ATCC 19606) and gram-positive bacteria Staphylococcus aureus MRSA (DSM 11822, ICB 25701). Gram-negative bacteria were cultured overnight in Mueller Hinton Broth (M-H Broth)+1% glucose (10 g/L) or Gram-positive bacteria were cultured overnight in trypticase soy yeast extract medium (TSY-Med) at 37° C. under 5% CO2 in an incubator shaker set at 180 rpm. Bacteria (from the overnight culture) were re-suspended in 10 mL of PBS buffer, to an optical density of 0.1 at 600 nm. The bacterial culture solution was transferred into 48 well plates, with each well containing 200 μL of bacteria, and 0.4 μL of either coumarin 343, HHY-10 and HHY-11 stock solutions (10 mM in PBS) were added, generating a 20 μM probe concentration. The bacteria were incubated with the probes for 1 hour at 37° C. under 5% CO2 in an incubator without shaking. The bacteria were harvested by centrifuging the bacterial solutions. The resulting pellets were washed 3 times with 200 μL PBS by resuspending the pellets in PBS and centrifuging. The washed bacterial pellets were transferred into a slice, then imaged using confocal fluorescent microscopy. The intensity of the green signal from coumarin presents the relevant amount of these probes taken by the bacteria.

For assay [6], the system named is P. aeruginosa PA01/wt. In words: Broth microdilution MIC, P. aeruginosa PA01/wt. The procedure: as §1, §2
Assay [7] relates to Acinetobacter baumannii (DSM 30007, ATCC 19606). Put plainly: Broth microdilution MIC, Acinetobacter baumannii. The procedure:
as §1, §2, §3

Assay [8] concerns Pseudomonas aeruginosa PA7 (DSM 24068). In words: Broth microdilution MIC, Pseudomonas aeruginosa. How it is done:
as §1, §2, §3

Assay [9] concerns Pseudomonas aeruginosa PA7, Acinetobacter baumannii, Staphylococcus aureus MRSA. In words: Bacterial inhibition assays, across the bacteria tested. How it is done: as §1
Antibacterial activity of the compounds was determined by measuring their minimum inhibitory concentrations (MIC90's) using the broth microdilution method according to the Clinical and Laboratory Standards Institute (CLSI, formerly the NCCLS) guidelines. Each well of a 96-well microtiter plate was filled with 40 μL of sterile broth media (−Fe or +Fe). Each test compound was dissolved in DMSO making a 10 mM solution, and then diluted with sterile broth media (−Fe or +Fe) to 75 or 150 μM. […]
Compounds HHY-10 and HHY-11 were subjected to further assays to determine their minimum inhibitory concentrations (MIC) in both iron-rich and iron-deficient media (Table 1). […] The inhibitory activities of vancomycin siderophore-DOTA conjugate HHY-30 have been analyzed under similar conditions.

Assay [10] has as its system P. aeruginosa PA14/wt. In words: Broth microdilution MIC, P. aeruginosa PA14/wt. How it is done: as §1, §2
Assay [11] relates to Staphylococcus aureus MRSA (DSM 11822, ICB 25701). Put plainly: Broth microdilution MIC, Staphylococcus aureus. The procedure:
as §1, §2, §3

[12] abbreviates: Fe− (iron-deficient MHII broth).

The structures appear in SMILES notation. ≈ marks a conversion by molar mass, not a printed value. Read-outs that look alike come from different tables or passages of the source.

As usually defined, the MIC is the least concentration at which growth counts as inhibited. For `CC(=O)Oc1cccc(C(=O)NCCNC(=O)CN2CCN(CC(=O)NCCCOCCOCCOCCCNC(=O)c3cc4cc5c6c(c4oc3=O)CCCN6CCC5)CCN(CC(=O)NCCNC(=O)c3cccc(OC(C)=O)c3OC(C)=O)CCN(CC(=O)NCCNC(=O)c3cccc(OC(C)=O)c3OC(C)=O)CC2)c1OC(C)=O` [HHY-10], the MIC was above 100 µM in assay [1] (Pseudomonas aeruginosa, PA01/PIRA, Fe+ (iron-rich MHII broth)); 40 µM (≈ 66.4 µg/mL) in [1] (Pseudomonas aeruginosa, PA01/PIRA, Fe− (iron-deficient MHII broth)); above 100 µM in assay [2] (setting [12]); above 100 µM in assay [2] (Klebsiella pneumoniae); above 100 µM in [2] (Klebsiella pneumoniae, read-out: MIC (inactive against K. pneumoniae)); above 100 µM in assay [3] (Pseudomonas aeruginosa, PA07/WT, Fe+ (iron-rich MHII broth)). In addition, the MIC is 40 µM (≈ 66.4 µg/mL) in assay [3] (Pseudomonas aeruginosa, PA07/WT, Fe− (iron-deficient MHII broth)); above 100 µM in [4] (Pseudomonas aeruginosa, PAO01/FPTA, Fe+ (iron-rich MHII broth)); 40 µM (≈ 66.4 µg/mL) in assay [4] (Pseudomonas aeruginosa, PAO01/FPTA, Fe− (iron-deficient MHII broth)); above 100 µM in assay [6] (Pseudomonas aeruginosa, PA01/WT, Fe+ (iron-rich MHII broth)); 40 µM (≈ 66.4 µg/mL) in assay [6] (Pseudomonas aeruginosa, PA01/WT, Fe− (iron-deficient MHII broth)); above 100 µM in assay [7] (Acinetobacter baumannii, Fe+ (iron-rich MHII broth)). The MIC was 15 µM (≈ 24.9 µg/mL) in assay [7] (Acinetobacter baumannii, Fe− (iron-deficient MHII broth)); above 100 µM in assay [8] (Pseudomonas aeruginosa, DSM24068, Fe+ (iron-rich MHII broth)); 33 µM (≈ 54.8 µg/mL) in [8] (Pseudomonas aeruginosa, DSM24068, Fe− (iron-deficient MHII broth)); above 100 µM in assay [10] (Pseudomonas aeruginosa, PA14, Fe+ (iron-rich MHII broth)); 40 µM (≈ 66.4 µg/mL) in assay [10] (Pseudomonas aeruginosa, PA14, Fe− (iron-deficient MHII broth)); above 100 µM in assay [11] (Staphylococcus aureus, Fe+ (iron-rich MHII broth)). In [11] (Staphylococcus aureus, Fe− (iron-deficient MHII broth)), this compound returned an MIC of 28 µM (≈ 46.5 µg/mL). In addition, the “uptake: fluorescence (green signal from coumarin) in bacteria” value in assay [5] is reported as “obvious fluorescent signals”. For the same compound, the antibacterial activity entry in [9] (iron-deficient medium) was “media antibacterial activity”.

`O=C(O)c1cc2cc3c4c(c2oc1=O)CCCN4CCC3` [Coumarin 343, reference compound]: the MIC in assay [1] (Fe+ (iron-rich MHII broth)), in assay [1] (setting [12]), in assay [2] (Fe+ (iron-rich MHII broth)), in [2] (setting [12]), in assay [3] (Fe+ (iron-rich MHII broth)) and in assay [3] (setting [12]) was above 100 µM throughout. For the same compound, the MIC in [4] (Fe+ (iron-rich MHII broth)), in [4] (setting [12]), in assay [6] (Fe+ (iron-rich MHII broth)), in [6] (setting [12]), in assay [7] (Fe+ (iron-rich MHII broth)) and in [7] (setting [12]) was above 100 µM in each case. The MIC in assay [8] (Fe+ (iron-rich MHII broth)), in assay [8] (setting [12]), in [10] (Fe+ (iron-rich MHII broth)), in [10] (setting [12]), in assay [11] (Fe+ (iron-rich MHII broth)) and in [11] (setting [12]) was above 100 µM throughout. Further, the “uptake: fluorescence (green signal from coumarin) in bacteria” value in assay [5] is recorded as “would not lead to obvious fluorescence”. For the same compound, the “MIC (generally inactive)” value in assay [9] (across bacteria) was above 100 µM.
